Results as given in patent US12539292B2, “BRM targeting compounds and associated methods of use” (Arvinas Operations, Inc., priority 2018, dated 2026).
Like-named read-outs stand apart in the source and are kept apart here.

Target: T1, BRM (Homo sapiens, UniProt P51531)
T1 construct: In-Cell Western Screen of BRM Degradation in SW1573 Cells; endogenous in cells; host or cells: SW1573
Experiment: In-cell Western screen of BRM degradation in SW1573 cells (Dmax and DC50)
Type: cell-based
How it was run: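 SW1573 cells were treated with compound overnight (18-20 h; final DMSO 0.1%), then fixed in 4% PFA, permeabilized with Triton X-100 and blocked. BRM was detected by in-cell Western using 800 nm anti-rabbit and 680 nm anti-mouse secondaries, and Dmax and DC50 were derived from the LI-COR Odyssey signal.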

[1] = BRM degradation, SW1573 cells, read-out: DC50
[2] = SW1573, % degraded, when tested at the top concentration of between 0.3 and 10 μM, read-out: BRM Dmax (%)
[3] = BRM degradation, SW1573 cells, tested at the top concentration of between 0.3 and 10 μM, read-out: Dmax (%) (% degraded)
[4] = BRM degradation, SW1573 cells, Table 2D, read-out: *DC50
[5] = degradation of BRM, read-out: BRM DC50

T1 sequence (P51531 whole entry): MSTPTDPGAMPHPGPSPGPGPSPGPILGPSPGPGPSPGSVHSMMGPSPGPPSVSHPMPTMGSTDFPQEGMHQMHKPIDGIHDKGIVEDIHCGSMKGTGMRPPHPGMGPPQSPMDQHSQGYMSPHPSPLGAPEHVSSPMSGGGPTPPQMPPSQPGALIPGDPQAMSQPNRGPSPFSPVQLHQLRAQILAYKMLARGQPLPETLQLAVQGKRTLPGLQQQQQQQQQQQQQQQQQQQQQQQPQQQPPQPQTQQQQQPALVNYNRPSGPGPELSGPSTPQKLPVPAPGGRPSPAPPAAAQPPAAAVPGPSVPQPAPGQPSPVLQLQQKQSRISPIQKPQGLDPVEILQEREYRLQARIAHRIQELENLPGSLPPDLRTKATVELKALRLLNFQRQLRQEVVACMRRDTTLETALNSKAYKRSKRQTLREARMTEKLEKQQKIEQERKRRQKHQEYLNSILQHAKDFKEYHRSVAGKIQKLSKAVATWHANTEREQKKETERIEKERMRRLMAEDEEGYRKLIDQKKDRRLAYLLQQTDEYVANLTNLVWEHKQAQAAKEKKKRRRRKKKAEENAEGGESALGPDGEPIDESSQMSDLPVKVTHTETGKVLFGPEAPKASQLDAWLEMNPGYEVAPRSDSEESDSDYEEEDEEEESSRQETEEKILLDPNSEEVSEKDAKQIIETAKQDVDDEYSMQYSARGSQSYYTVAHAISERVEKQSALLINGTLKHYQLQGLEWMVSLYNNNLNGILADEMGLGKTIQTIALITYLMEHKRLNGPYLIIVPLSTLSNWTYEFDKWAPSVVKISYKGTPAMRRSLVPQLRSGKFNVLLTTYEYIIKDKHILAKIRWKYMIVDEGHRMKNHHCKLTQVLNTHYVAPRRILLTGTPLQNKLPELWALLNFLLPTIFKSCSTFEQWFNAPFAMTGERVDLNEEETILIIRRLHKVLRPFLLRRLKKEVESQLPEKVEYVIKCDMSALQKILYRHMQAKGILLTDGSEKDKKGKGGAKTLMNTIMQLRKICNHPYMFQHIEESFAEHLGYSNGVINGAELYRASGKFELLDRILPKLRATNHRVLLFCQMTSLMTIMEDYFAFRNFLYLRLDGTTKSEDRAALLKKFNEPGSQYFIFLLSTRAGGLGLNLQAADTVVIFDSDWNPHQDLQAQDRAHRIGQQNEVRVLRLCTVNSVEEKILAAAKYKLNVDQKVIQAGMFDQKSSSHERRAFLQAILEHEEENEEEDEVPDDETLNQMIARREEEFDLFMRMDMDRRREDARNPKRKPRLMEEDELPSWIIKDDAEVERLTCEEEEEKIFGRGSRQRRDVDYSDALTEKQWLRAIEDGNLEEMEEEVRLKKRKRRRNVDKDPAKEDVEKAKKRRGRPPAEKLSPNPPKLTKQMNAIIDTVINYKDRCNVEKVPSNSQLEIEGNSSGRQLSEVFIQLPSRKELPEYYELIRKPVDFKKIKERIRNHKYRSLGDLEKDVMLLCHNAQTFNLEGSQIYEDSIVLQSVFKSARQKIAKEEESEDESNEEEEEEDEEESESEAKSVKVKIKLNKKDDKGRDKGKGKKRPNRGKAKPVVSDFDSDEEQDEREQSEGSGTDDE

Work on `Cc1ncsc1-c1ccc([C@@H](NC(=O)[C@@H]2C[C@@H](O)CN2C(=O)[C@@H](c2cc(OCCN3CCN(CCOc4cc(N5C6CCC5CN(c5cc(-c7ccccc7O)nnc5N)C6)ccn4)CC3)no2)C(C)C)C(=O)N(C)C)cc1` [compound 131, (2S,4R)-1-((2R)-2-(3-(2-(4-(2-((4-(3-(3-amino-6-(2-hydroxyphenyl)pyridazin-4-yl)-3,8-diazabicyclo[3.2.1]octan-8-yl)pyridin-2-yl)oxy)ethyl)piperazin-1-yl)ethoxy)isoxazol-5-yl)-3-methylbutanoyl)-N-((R)-2-(dimethylamino)-1-(4-(4-methylthiazol-5-yl)phenyl)-2-oxoethyl)-4-hydroxypyrrolidine-2-carboxamide] yielded a DC50 [1] of less than 0.0025 µM and a Dmax (BRM degradation, SW1573 cells, when tested at the top concentration of between 0.3 and 10 μM, read-out: Dmax (%) (% degraded)) greater than 75%.
Compound `Cc1cnsc1-c1ccc([C@H](C)NC(=O)[C@@H]2C[C@@H](O)CN2C(=O)[C@H](c2cc(OCCN3CCN(CCOc4cc(N5C6CCC5CN(c5cc(-c7ccccc7O)nnc5N)C6)ccn4)CC3)no2)C(C)C)cc1` [compound 265, (2S,4R)-1-((2S)-2-(3-(2-(4-(2-((4-(3-(3-amino-6-(2-hydroxyphenyl)pyridazin-4-yl)-3,8-diazabicyclo[3.2.1]octan-8-yl)pyridin-2-yl)oxy)ethyl)piperazin-1-yl)ethoxy)isoxazol-5-yl)-3-methylbutanoyl)-4-hydroxy-N-((S)-1-(4-(4-methylisothiazol-5-yl)phenyl)ethyl)pyrrolidine-2-carboxamide] has a DC50 [1] greater than 0.03 µM.
In the case of `Cc1ncsc1-c1ccc([C@H](C)NC(=O)[C@@H]2C[C@@H](O)CN2C(=O)[C@H](c2cc(N3CCN(CC4CCN(C[C@H]5C[C@H](Oc6cc(N7C8CCC7CN(c7cc(-c9ccccc9O)nnc7N)C8)ccn6)C5)CC4)CC3)no2)C(C)C)cc1` [compound 457, (2S,4R)-1-((2S)-2-(3-(4-((1-(((1r,3r)-3-((4-(3-(3-amino-6-(2-hydroxyphenyl)pyridazin-4-yl)-3,8-diazabicyclo[3.2.1]octan-8-yl)pyridin-2-yl)oxy)cyclobutyl)methyl)piperidin-4-yl)methyl)piperazin-1-yl)isoxazol-5-yl)-3-methylbutanoyl)-4-hydroxy-N-((S)-1-(4-(4-methylthiazol-5-yl)phenyl)ethyl)pyrrolidine-2-carboxamide], the Dmax [2] is reported as greater than 75% and the DC50 (target protein degradation, read-out: BRM DC50) is reported as less than 0.0025 µM.
With `CC(C)C(C(=O)N1C[C@H](O)C[C@H]1C(=O)N[C@@H](C)c1ccc(-c2scnc2CN(C)C)cc1)c1cc(OCCN2CCN(CCOc3cc(N4C5CCC4CN(c4cc(-c6ccccc6O)nnc4N)C5)ccn3)CC2)no1` (stereo partly drawn) [compound 167, (2S,4R)-1-(2-(3-(2-(4-(2-((4-(3-(3-amino-6-(2-hydroxyphenyl)pyridazin-4-yl)-3,8-diazabicyclo[3.2.1]octan-8-yl)pyridin-2-yl)oxy)ethyl)piperazin-1-yl)ethoxy)isoxazol-5-yl)-3-methylbutanoyl)-N-((S)-1-(4-(4-((dimethylamino)methyl)thiazol-5-yl)phenyl)ethyl)-4-hydroxypyrrolidine-2-carboxamide] the DC50 [1] was 0.01 to 0.03 µM and the Dmax [3] was greater than 75%.
`Cc1ncsc1-c1ccc([C@H](C)NC(=O)[C@@H]2C[C@@H](O)CN2C(=O)[C@H](c2cc(OCCN3CCC(O[C@H]4C[C@H](Nc5cc(N6C7CCC6CN(c6cc(-c8ccccc8O)nnc6N)C7)ccn5)C4)CC3)no2)C(C)C)cc1` [compound 492, (2S,4R)-1-((2S)-2-(3-(2-(4-((1r,3S)-3-((4-(3-(3-amino-6-(2-hydroxyphenyl)pyridazin-4-yl)-3,8-diazabicyclo[3.2.1]octan-8-yl)pyridin-2-yl)amino)cyclobutoxy)piperidin-1-yl)ethoxy)isoxazol-5-yl)-3-methylbutanoyl)-4-hydroxy-N-((S)-1-(4-(4-methylthiazol-5-yl)phenyl)ethyl)pyrrolidine-2-carboxamide] showed a DC50 (BRM degradation, read-out: BRM DC50) greater than 0.03 µM.
`Cc1nccn1-c1ccc([C@H](C)NC(=O)[C@@H]2C[C@@H](O)CN2C(=O)[C@H](c2cc(N3CCC(O[C@H]4C[C@H](Oc5cc(N6C7CCC6CN(c6cc(-c8ccccc8O)nnc6N)C7)ccn5)C4)CC3)no2)C(C)C)cc1` [compound 600, (2S,4R)-1-((2S)-2-(3-(4-((1r,3S)-3-((4-(3-(3-amino-6-(2-hydroxyphenyl)pyridazin-4-yl)-3,8-diazabicyclo[3.2.1]octan-8-yl)pyridin-2-yl)oxy)cyclobutoxy)piperidin-1-yl)isoxazol-5-yl)-3-methylbutanoyl)-4-hydroxy-N-((S)-1-(4-(2-methyl-1H-imidazol-1-yl)phenyl)ethyl)pyrrolidine-2-carboxamide] showed a DC50 [4] greater than 0.03 µM.
`Cc1ncsc1-c1ccc([C@H](C)NC(=O)[C@@H]2C[C@@H](O)CN2C(=O)[C@@H](c2cc(OCCCC#Cc3ccc(O[C@H]4C[C@H](Oc5cc(N6C7CCC6CN(c6cc(-c8ccccc8O)nnc6N)C7)ccn5)C4)cn3)no2)C(C)C)cc1` [compound 250, (2S,4R)-1-((2R)-2-(3-((5-(5-((1r,3r)-3-((4-(3-(3-amino-6-(2-hydroxyphenyl)pyridazin-4-yl)-3,8-diazabicyclo[3.2.1]octan-8-yl)pyridin-2-yl)oxy)cyclobutoxy)pyridin-2-yl)pent-4-yn-1-yl)oxy)isoxazol-5-yl)-3-methylbutanoyl)-4-hydroxy-N-((S)-1-(4-(4-methylthiazol-5-yl)phenyl)ethyl)pyrrolidine-2-carboxamide] gave a DC50 [1] of less than 0.0025 µM and a Dmax [3] greater than 75%.
With `Cc1ncsc1-c1ccc([C@H](C)NC(=O)[C@@H]2C[C@@H](O)CN2C(=O)[C@@H](c2cc(OCCC3(O)CCN(C[C@H]4C[C@H](Oc5cc(N6C7CCC6CN(c6cc(-c8ccccc8O)nnc6N)C7)ccn5)C4)CC3)no2)C(C)C)cc1` [compound 436, (2S,4R)-1-((2R)-2-(3-(2-(1-(((1r,3R)-3-((4-(3-(3-amino-6-(2-hydroxyphenyl)pyridazin-4-yl)-3,8-diazabicyclo[3.2.1]octan-8-yl)pyridin-2-yl)oxy)cyclobutyl)methyl)-4-hydroxypiperidin-4-yl)ethoxy)isoxazol-5-yl)-3-methylbutanoyl)-4-hydroxy-N-((S)-1-(4-(4-methylthiazol-5-yl)phenyl)ethyl)pyrrolidine-2-carboxamide] the Dmax [2] was greater than 75% and the DC50 [5] was less than 0.0025 µM.
`Cc1ncsc1-c1ccc([C@H](C)NC(=O)[C@@H]2C[C@@H](O)CN2C(=O)[C@H](c2cc(N3CCC4(CCCN(C[C@H]5C[C@H](Oc6cc(N7C8CCC7CN(c7cc(-c9ccccc9O)nnc7N)C8)ccn6)C5)C4)CC3)no2)C(C)C)cc1` [compound 659, (2S,4R)-1-((2S)-2-(3-(2-(((1r,3S)-3-((4-(3-(3-amino-6-(2-hydroxyphenyl)pyridazin-4-yl)-3,8-diazabicyclo[3.2.1]octan-8-yl)pyridin-2-yl)oxy)cyclobutyl)methyl)-2,9-diazaspiro[5.5]undecan-9-yl)isoxazol-5-yl)-3-methylbutanoyl)-4-hydroxy-N-((S)-1-(4-(4-methylthiazol-5-yl)phenyl)ethyl)pyrrolidine-2-carboxamide] was tested, and the DC50 [1] was greater than 0.03 µM.
For `Cc1nccn1-c1ccc([C@H](C)NC(=O)[C@@H]2C[C@@H](O)CN2C(=O)[C@@H](c2cc(OCC#Cc3ccc(O[C@H]4C[C@H](Oc5cc(N6C7CCC6CN(c6cc(-c8ccccc8O)nnc6N)C7)ccn5)C4)cn3)no2)C(C)C)cc1` [compound 234, (2S,4R)-1-((2R)-2-(3-((3-(5-((1r,3R)-3-((4-(3-(3-amino-6-(2-hydroxyphenyl)pyridazin-4-yl)-3,8-diazabicyclo[3.2.1]octan-8-yl)pyridin-2-yl)oxy)cyclobutoxy)pyridin-2-yl)prop-2-yn-1-yl)oxy)isoxazol-5-yl)-3-methylbutanoyl)-4-hydroxy-N-((S)-1-(4-(2-methyl-1H-imidazol-1-yl)phenyl)ethyl)pyrrolidine-2-carboxamide], the DC50 [1] was less than 0.0025 µM and the Dmax [3] was greater than 75%.
`Cc1ncsc1-c1ccc([C@H](C)NC(=O)[C@@H]2C[C@@H](O)CN2C(=O)C(c2cc(OCCn3cc(C(C)n4cc(-c5cc(-c6ccccc6O)nnc5N)cn4)ccc3=O)no2)C(C)C)cc1` (stereo in doubt) [compound 162, (2S,4R)-1-((2R)-2-(3-(2-(5-(1-(4-(3-amino-6-(2-hydroxyphenyl)pyridazin-4-yl)-1H-pyrazol-1-yl)ethyl)-2-oxopyridin-1(2H)-yl)ethoxy)isoxazol-5-yl)-3-methylbutanoyl)-4-hydroxy-N-((S)-1-(4-(4-methylthiazol-5-yl)phenyl)ethyl)pyrrolidine-2-carboxamide] was tested, and the DC50 [1] was greater than 0.03 µM and the “Dmax (%) (% degraded)” value (BRM degradation, SW1573 cells, tested at the top concentration of between 0.3 and 10 μM) was “A (A > 75)”.
`Cc1ncsc1-c1ccc([C@H](C)NC(=O)[C@@H]2C[C@@H](O)CN2C(=O)[C@@H](c2cc(N3CCC(CN4CCC([C@@H](C)n5cc(-c6cc(-c7ccccc7O)nnc6N)cn5)CC4)CC3)no2)C(C)C)cc1` (single isomer, unassigned) [compound 574] was tested, and the Dmax (BRM degradation, SW1573 cells, Table 2D, read-out: **Dmax (%) (% degraded)) was greater than 75% and the DC50 [4] was less than 0.0025 µM.
Compound `Cc1ncsc1-c1ccc([C@H](C)NC(=O)[C@@H]2C[C@@H](O)CN2C(=O)[C@H](c2cc(OCCN3CCN(CCO[C@H]4C[C@H](Oc5cc(N6C7CCC6CN(c6cc(-c8ccccc8O)nnc6N)C7)ccn5)C4)CC3)no2)C(C)C)cc1` [compound 407, (2S,4R)-1-((2S)-2-(3-(2-(4-(2-((1r,3r)-3-((4-(3-(3-amino-6-(2-hydroxyphenyl)pyridazin-4-yl)-3,8-diazabicyclo[3.2.1]octan-8-yl)pyridin-2-yl)oxy)cyclobutoxy)ethyl)piperazin-1-yl)ethoxy)isoxazol-5-yl)-3-methylbutanoyl)-4-hydroxy-N-((S)-1-(4-(4-methylthiazol-5-yl)phenyl)ethyl)pyrrolidine-2-carboxamide] has a DC50 [5] greater than 0.03 µM.
